According to article PMC7993375, “Discovery of novel quinoline-based analogues of combretastatin A-4 as tubulin polymerisation inhibitors with apoptosis inducing activity and potent anticancer effect” (Journal of Enzyme Inhibition and Medicinal Chemistry, 2021):

Tests used:
HL-60 = test: MTT cell viability assay, HL-60 leukaemia cells; type: cell-based; conditions: Homo sapiens, 72 h, read-out: IC50 value, HL-60
Description: (§1) The four human tumour cell lines MCF-7, HCT-116, HL-60 and HeLa used in this study were obtained from the VACSERA (Giza, Egypt) cell culture unit that were originally acquired from ATCC (Manassas, VA, USA). All the human tumour cell lines were cultured in Dulbecco’s Modified Eagle’s Medium (DMEM) with 10% foetal bovine serum, 2 mM L-glutamine and 100 µg/mL penicillin/streptomycin. Cells were maintained at 37 °C in 5% CO2 in a humidified incubator. All cells were sub-cultured 3 times/week by trypsinisation using TrypLE Express (1X).
(§2) The quinoline compounds were evaluated for antiproliferative effect using the MTT viability assay of four cancer cell lines (MCF-7, HCT-116, HL-60 and HeLa) and normal breast cells MCF-10A to calculate the relative IC50 values for each compound. Cells were seeded in triplicate in 96-well plates at a density of 10 × 10^3 cells/ml in a total volume of 200 µl per well. 0.1% of DMSO was used as a vehicle control. Following, the cells were treated with 2 µl test compound (from stock solutions in ethanol) to furnish the concentration range of study, 1 nM to 50 µM, and re-incubated for a further 72 h. The culture medium was then removed, and the cells washed with 100 µL phosphate buffered saline (PBS) and 50 µL MTT added, to reach a final concentration of 1 mg/mL. Cells were incubated for 2 h in darkness at 37 °C. Solubilisation was begun through the addition of […] DMSO, and the cells maintained at room temperature in darkness for 20 min to ensure thorough colour diffusion before reading the absorbance. Plates were incubated for 72 h at 37 °C + 5% CO2. The MTT (5 mg/mL in PBS) was added and incubated for another 4 h, and the optical density was detected with a microplate reader at 570 nm. Results were expressed as percentage viability relative to vehicle control (100%). Dose response curves were plotted and IC50 values (concentration of drug resulting in 50% reduction in cell survival) were obtained using the commercial software package Prism (GraphPad Software, Inc., La Jolla, CA, USA). All the experiments were repeated in at least three independent experiments.

MCF-7 = test: MTT cell viability assay, MCF-7 breast adenocarcinoma cells; type: cell-based; conditions: Homo sapiens, MCF7, 72 h, read-out: IC50 value, MCF-7
Description: as §1, §2

HCT-116 = test: MTT cell viability assay, HCT-116 colorectal carcinoma cells; type: cell-based; conditions: Homo sapiens, 72 h
Description: as §1, §2

HeLa = test: MTT cell viability assay, HeLa cervical adenocarcinoma cells; type: cell-based; conditions: Homo sapiens, 72 h
Description: as §1, §2

bovine brain tubulin = test: Tubulin polymerisation assay; type: biochemical; conditions: for IC50: Tubulin was at 10 µM, read-out: Tubulin assembly IC50 (inhibition of tubulin polymerisation)
Description: The assembly of purified bovine tubulin was monitored using a kit, BK006, purchased from Cytoskeleton Inc., (Denver, CO, USA). The assay was carried out in accordance with the manufacturer’s instructions using the standard assay conditions. Briefly, purified ([…]) in a buffer consisting of 80 mM PIPES (pH 6.9), 0.5 mM EGTA, 2 mM MgCl2, 1 mM GTP and 10% glycerol was incubated at 37 °C in the presence of either vehicle (2% (v/v) ddH2O), CA-4, or the quinoline compounds. Light is scattered proportionally to the concentration of polymerised microtubules in the assay. Therefore, tubulin assembly was monitored turbidimetrically at 340 nm in a Spectramax 340 PC spectrophotometer (Molecular Devices, Sunnyvale, CA, USA). The concentration that inhibits tubulin polymerisation by 50% (IC50) was determined using area under the curve (AUC). The AUC of the untreated controls were considered as 100% polymerisation. The IC50 value for each compound was computed using GraphPad Prism Software.

[1] = test system: MCF-7, HL-60, HCT-116 and HeLa; test: MTT cell viability assay, statements over all four cancer cell lines; type: cell-based, human
Description: as §1, §2

Row | IC50 (HL-60) [µM] | IC50 (MCF-7) [µM] | IC50 (HCT-116) [µM] | IC50 (HeLa) [µM] | IC50 (bovine brain tubulin) [µM] | melting point [°C] | IC50 ([1]; Homo sapiens) [µM] | IC50 over all four cancer cell lines [1] | SMILES | fold less active than CA-4 (tubulin assembly) (bovine brain tubulin) [fold] | fold less active than 12c (tubulin polymerisation) (bovine brain tubulin) [fold]
1 | 3.309 ± 0.022 | 1.71 ± 0.04 | 2.01 ± 0.08 | 2.11 ± 0.034 | 14 | 215 to 217 | – | – | COc1cc(C2=NC(=Cc3cc4ccccc4nc3OC)C(=O)O2)cc(OC)c1OC [Compound 12a, 4-[(2-Methoxyquinolin-3-yl)methylene]-2–(3,4,5-trimethoxyphenyl)oxazol-5(4H)-one] | 6 | –
2 | 0.197 ± 0.041 | 0.132 ± 0.013 | 0.184 ± 0.007 | 0.117 ± 0.085 | – | 218 to 220 | – | – | COc1cc(C2=NC(=Cc3cc4cc(C)ccc4nc3OC)C(=O)O2)cc(OC)c1OC [Compound 12b, 4-[(2-Methoxy-6-methylquinolin-3-yl)methylene]-2–(3,4,5-trimethoxyphenyl) oxazol-5(4H)-one] | – | –
3 | 0.268 ± 0.093 | 0.154 ± 0.071 | 0.191 ± 0.001 | 0.153 ± 0.083 | – | 236 to 238 | – | – | COc1cc(C2=NC(=Cc3cc4cccc(C)c4nc3OC)C(=O)O2)cc(OC)c1OC [Compound 12d, 4-[(2-Methoxy-8-methylquinolin-3-yl)methylene]-2–(3,4,5-trimethoxyphenyl) oxazol-5(4H)-one] | – | –
4 | 0.068 ± 0.034 | 0.056 ± 0.027 | 0.031 ± 0.001 | 0.01 ± 0.004 | 2.26 | 242 to 244 | – | – | COc1ccc2nc(OC)c(/C=C3\N=C(c4cc(OC)c(OC)c(OC)c4)OC3=O)cc2c1 [Compound 12e] | – | –
5 | 0.352 ± 0.021 | 0.052 ± 0.0021 | 0.066 ± 0.005 | 0.138 ± 0.026 | – | 221 to 223 | – | – | COc1ccc2cc(C=C3N=C(c4cc(OC)c(OC)c(OC)c4)OC3=O)c(OC)nc2c1 [Compound 12f, 4-[(2,7-Dimethoxyquinolin-3-yl)methylene]-2–(3,4,5-trimethoxyphenyl)oxazol-5(4H)-one] | – | –
6 | 1.82 ± 0.64 | 1.51 ± 0.22 | 7.88 ± 0.3 | 1.75 ± 0.5 | 8.23 | 227 to 229 | – | – | COc1cc(C2=NC(=Cc3cc4ccc(OC(C)C)cc4nc3OC)C(=O)O2)cc(OC)c1OC [Compound 12g, 4-[(7-Isopropoxy-2-methoxyquinolin-3-yl)methylene]-2–(3,4,5-trimethoxyphenyl)oxazol-5(4H)-one] | 4 | –
7 | 4.66 ± 0.26 | 1.93 ± 0.612 | 1.56 ± 0.72 | 1.05 ± 0.84 | – | 247 to 249 | – | – | COc1cc(C2=NC(=Cc3cc4ccc(OCc5ccccc5)cc4nc3OC)C(=O)O2)cc(OC)c1OC [Compound 12h, 4-[(7-(Benzyloxy)-2-methoxyquinolin-3-yl)methylene]-2–(3,4,5-trimethoxyphenyl)oxazol-5(4H)-one] | – | –
8 | 1.56 ± 0.055 | 1.03 ± 0.055 | 8.21 ± 0.0077 | 1.41 ± 0.096 | – | 230 to 232 | > 1 | – | COc1cc(C2=NC(=Cc3cc4ccccc4nc3OC)C(=O)N2)cc(OC)c1OC [Compound 13a, 5-[(2-Methoxyquinolin-3-yl)methylene]-2–(3,4,5-trimethoxyphenyl)-3,5-dihydro-4H-imidazol-4-one] | – | –
9 | 0.24 ± 0.012 | 0.063 ± 0.0011 | 0.173 ± 0.025 | 0.188 ± 0.013 | – | 223 to 225 | – | submicromolar | COc1cc(C2=NC(=Cc3cc4cc(C)ccc4nc3OC)C(=O)N2)cc(OC)c1OC [Compound 13b, 5-[(2-Methoxy-6-methylquinolin-3-yl)methylene]-2–(3,4,5-trimethoxyphenyl)-3,5-dihydro-4H-imidazol-4-one] | – | –
10 | 0.661 ± 0.026 | 0.223 ± 0.056 | 0.284 ± 0.083 | 0.733 ± 0.091 | 20.3 | 236 to 238 | – | submicromolar | COc1cc(C2=NC(=Cc3cc4ccc(C)cc4nc3OC)C(=O)N2)cc(OC)c1OC [Compound 13c, 5-[(2-Methoxy-7-methylquinolin-3-yl)methylene]-2–(3,4,5-trimethoxyphenyl)-3,5-dihydro-4H-imidazol-4-one] | – | 16
11 | 0.096 ± 0.006 | 0.137 ± 0.023 | 0.109 ± 0.011 | 0.126 ± 0.044 | – | 233 to 235 | – | submicromolar | COc1cc(C2=NC(=Cc3cc4cccc(C)c4nc3OC)C(=O)N2)cc(OC)c1OC [Compound 13d, 5-[(2-Methoxy-8-methylquinolin-3-yl)methylene]-2–(3,4,5-trimethoxyphenyl)-3,5-dihydro-4H-imidazol-4-one] | – | –
12 | 0.272 ± 0.05 | 0.042 ± 0.0025 | 0.085 ± 0.003 | 0.062 ± 0.003 | 1.48 | 253 to 255 | – | – | COc1ccc2nc(OC)c(C=C3N=C(c4cc(OC)c(OC)c(OC)c4)NC3=O)cc2c1 [Compound 13e, 5-[(2,6-Dimethoxyquinolin-3-yl)methylene]-2–(3,4,5-trimethoxyphenyl)-3,5-dihydro-4H-imidazol-4-one] | – | –
13 | 0.21 ± 0.098 | 0.092 ± 0.0062 | 0.187 ± 0.009 | 0.101 ± 0.09 | – | 241 to 243 | – | – | COc1ccc2cc(C=C3N=C(c4cc(OC)c(OC)c(OC)c4)NC3=O)c(OC)nc2c1 [Compound 13f, 5-[(2,7-Dimethoxyquinolin-3-yl)methylene]-2–(3,4,5-trimethoxyphenyl)-3,5-dihydro-4H-imidazol-4-one] | – | –
14 | 5.11 ± 0.41 | 5.56 ± 0.133 | 1.62 ± 0.95 | 4.44 ± 0.6 | – | 238 to 240 | – | – | COc1cc(C2=NC(=Cc3cc4ccc(OC(C)C)cc4nc3OC)C(=O)N2)cc(OC)c1OC [Compound 13g, 5-((7-Isopropoxy-2-methoxyquinolin-3-yl)methylene)-2–(3,4,5-trimethoxyphenyl)-3,5-dihydro-4H-imidazol-4-one] | – | –
15 | 4.93 ± 0.26 | 1.7 ± 0.821 | 2.61 ± 0.43 | 2.07 ± 0.39 | – | 259 to 261 | – | – | COc1cc(C2=NC(=Cc3cc4ccc(OCc5ccccc5)cc4nc3OC)C(=O)N2)cc(OC)c1OC [Compound 13h, 5-[(7-(Benzyloxy)-2-methoxyquinolin-3-yl)methylene]-2–(3,4,5-trimethoxyphenyl)-3,5-dihydro-4H-imidazol-4-one] | – | –
